The results in this text go back to PMC11117691, “Flipping the GPCR Switch: Structure-Based Development of Selective Cannabinoid Receptor 2 Inverse Agonists” (ACS Central Science, 2024).

In assay [1] the target is T1, hCB2R (Homo sapiens, UniProt P34972). The experiment in a line: Radioligand binding assay with [3H]-CP55,940. Set-up: expressed in transfected cells. Conditions: [3H]-CP55,940 competition, CHO-hCB2R membranes, 2 h at 30 °C. Here is the method:
For bindings experiments CHO cells stably expressing the human CB2R were used.14 […]
Radioligand binding assays were performed with [3H]-CP55,940 (Perkin Elmer, Austria) .
Membrane preparation was carried out according to previously published protocols.15 Briefly, competition binding experiments were carried out in duplicates at a final volume of 300 µL containing binding buffer (50 mM Tris-HCl, 2.5mM EDTA, 5 mM MgCl2, 0.5 mg/mL fatty acid-free BSA; pH 7.4), [3H]-CP55,940 (0.3 nM final concentration), compounds (semi logarithmically -spaced concentrations ranging from 0.1 nM to 10 µM) and membranes (2 µg/assay) in silanized glass vials. The reaction mixture was incubated for 2 h at 30 °C. Nonspecific binding was determined in the presence of AM630 (10 µM). Bound radioligand was separated from free radioligand by rapid filtration using 0.1% polyethlyenimine -presoaked GF/C glass fiber filter and a Skatron cell harvester. The radioactivity retained on the filters was measured by liquid scintillation. IC 50 and Ki values obtained from radioligand competition binding assays were determined by fitting the data to a three-parameter logistic Hill equation and applying the Cheng and Prusoff approximation. Data were normalized to specific binding of [3H]-CP55,940 in absence of compounds as maximum percentage (100%), which refers to an average of 4500 -5000 fmoles/mg protein for CB2R. […]

The target in assay [2] is T1, hCB2R. The assay is described as follows: cAMP HTRF assay in hCB2R-CHO cells. The assay is classed as cell-based. Set-up: expressed in transfected cells. The source says: One of the canonical signaling pathways of CB2R involves association with Gαi/o proteins, which elicit reversible inhibition of adenylyl cyclase resulting in a decrease of cellular cAMP levels and suppression of protein kinase A activity.[67] Consequently, we have investigated the change in cAMP levels upon probe addition using homogeneous time-resolved fluorescence (HTRF) cAMP assay (Table 3).
Homogeneous Time-Resolved Fluorescence (HTRF) cAMP assay
The homogeneous time-resolved fluorescence (HTRF) cAMP assay was conducted according to the manufacturer’s protocol for the cAMP-Gs Dynamic kit (Cisbio). Briefly, the CHO cell line stably overexpressing CB2R was maintained in Ham’s F12 supplemented with 10% FBS, penicillin (100 U/mL, Gibco-ThermoFisher), streptomycin (100 μg/mL, Gibco-ThermoFisher) and G418 (400 μg/mL, ThermoFisher). For CB2R compounds test, the cells were harvested with Cell Dissociation Buffer, resuspended in F-12 K at 0.4×10^6 cells/mL, and dispensed into 384-well low volume plates at 2000 cells/5 μL per well. The cells were stimulated with compounds diluted in Stimulation Buffer (2.5 μL/well) for 15 min at room temperature, followed by the addition of forsklin (2.5 μL 25 μM). After 15 mins incubation, reactions were stopped by 5 μL/well cAMP-d2 conjugate working solution followed by 5 μL/well of anti-cAMP cryptate working solution. After incubation for 1 h at room temperature, the plates were read in a PerkinElmer Envision reader for Time-Resolved Förster Resonance Energy Transfer (TR-FRET) at 620 nm and 665 nm.
β–arrestin recruitment assay
SNAP-tagged human CB2R HEK293-TR cells were maintained in a humidified environment at 37 °C and 5% CO2 in Dulbecco’s modified Eagle’s medium (DMEM) with 10% fetal bovine serum (FBS) containing blasticidin (5 µg/mL; Invitrogen) and (Zeocin; 20 µg/mL; Invitrogen). For receptor-inducible expression, cells were seeded into t175 cm2 flasks, grown to 70% confluence and DMEM containing 1 µg/ml tetracycline added.
HEK293TR-CB2R-nLuc cells expressing a fluorescently labelled β-arrestin protein were maintained in a humidified environment at 37 °C and 5% CO2 in Dulbecco’s modified Eagle’s medium (DMEM) with 10% fetal bovine serum (FBS) containing blasticidin (5 µg/mL; Invitrogen), Zeocin (20 µg/mL; Invitrogen) and G418 (0.2 mg/mL; Invitrogen) and used to assess compound stimulated β-arrestin recruitment to the human CB2R. Cultured cells were harvested upon reaching 70% confluency and plated at a seeding density of 50,000 cells per well. The cells were grown for 48 h until they reached confluency and then stimulated with 1 μg/mL tetracycline for a further 48 h to induce CB2R expression. Cell culture media was then aspirated from the wells and the cells were washed with assay buffer, 100 μL/well HBSS containing 0.5% BSA and 5 mM

Assay [3] deals with T1, hCB2R. The assay is classed as cell-based. Conditions: HEK293TR-CB2R-nLuc cells, representative of N = 3. Set-up: expressed in transfected cells; host or cells: HEK293TR cells, tetracycline-induced, live cells.
Procedure: HEPES. Following the wash, assay buffer containing 10 μM furimazine, 90 μL/well was added
to the wells. The plate was then incubated at 37 °C for 15 minutes to allow the nanoLuc substrate
furimazine to enter the cells. Three BRET cycles of 1-minute intervals were performed to assess
basal BRET levels, following which 10 μL of each compound, diluted in assay buffer was added
to the assay plate, which was read at 1-minute intervals for 30 minutes.
Buffer containing 10% DMSO (1% final) served as the vehicle control and
The assay buffer used to profile compounds in the CB 2R Gi-CASE system consisted of HBSS
containing 0.02% pluronic F127, 0.5% BSA and 5 mM HEPES. The reference compounds HU -
polypropylene plate. 0.5 µL of the reference and test compound serial dilutions was then added to
a white 384 well OptiplateTM (PerkinElmer) containing 39.5 μL of assay buff er. Finally, the CB 2R
membranes containing the G i-CASE biosensor were thawed and added into assay buffer containing
50 µM furimazine. Membranes (10 μL) were added to the assay plate at a final concentration of 5
µg/well. The total assay volume was 50 µL.
In assay [4] the target is T1, hCB2R. The assay is described as follows: TR-FRET saturation binding assay at CB2R. On the set-up: expressed in transfected cells; host or cells: HEK293-TR cells, tetracycline-induced; membrane preparations. The following applies: TR-FRET, room temperature, HEK293 membranes of SNAP-Lumi4-Tb labeled hCB2R.
Assay [5] concerns the target T1, hCB2R. The assay is described as follows: TR-FRET kinetic binding assay at CB2R. Set-up: expressed in transfected cells; host or cells: HEK293-TR cells, tetracycline-induced; membrane preparations. Conditions: for ΔΔG (Experimental): (R)-3 in comparison to (S)-3, from experimental Kd values.
Assay [6] concerns the target T1, hCB2R. The experiment in a line: BRET Gi-CASE G protein recruitment membrane assay. The assay is classed as biochemical. On the set-up: expressed in transfected cells; host or cells: HEK293-TR cells, tetracycline-induced; membrane preparations. Conditions: hCB2R-HEK293 T-REx membranes, mean N = 3–4; read-out: pEC50 (Gi-CASE G protein recruitment) (converted).
[7] abbreviates: 37 °C, hCB2R-HEK293 membranes, mean N = 3.

T1 sequence (P34972 whole entry): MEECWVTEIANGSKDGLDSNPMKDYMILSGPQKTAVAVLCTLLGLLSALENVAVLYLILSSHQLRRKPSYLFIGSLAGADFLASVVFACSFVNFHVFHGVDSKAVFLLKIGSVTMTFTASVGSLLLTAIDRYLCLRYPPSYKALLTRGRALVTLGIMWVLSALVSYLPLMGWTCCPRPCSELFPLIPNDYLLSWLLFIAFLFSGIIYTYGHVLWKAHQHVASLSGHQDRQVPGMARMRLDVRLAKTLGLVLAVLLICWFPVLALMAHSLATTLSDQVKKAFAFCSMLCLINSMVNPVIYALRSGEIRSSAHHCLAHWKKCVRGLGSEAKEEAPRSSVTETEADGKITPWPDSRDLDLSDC

On to `C#CCCC(=O)NCC1=CC(c2c(OC)cc(C(C)(C)C(CCCCCN=[N+]=[N-])c3ccccc3)cc2OC)C2CC1C2(C)C` [(R)-3], for which, at hCB2R [1], the affinity, expressed as Ki, was 0.66 nM. Further, the EC50 is 33.1 nM at hCB2R [2] (hCB2R-CHO cells, forskolin stimulated, mean N = 3) and 60.3 nM at hCB2R [6]. The “Emax (cAMP)” value on hCB2R [2] (normalized to agonist CP-55,940 response (100%) and basal level (0%)) is “–55%”. The “β-arrestin recruitment (BRET signal)” value at hCB2R [3] is “Baseline BRET signal was retained”. For the same compound, the Kd at hCB2R [4] turned out to be 0.42 nM; at hCB2R [5] (kinetic Kd, 37 °C, hCB2R-HEK293 membranes, mean N = 3), 0.26 nM. Further, the koff at hCB2R [5] (setting [7]) is 2.29 10^–2 min^–1. The kon on hCB2R [5] (setting [7]) was 88.7 10^6 M^–1 min^–1. In addition, the “τ (receptor residence time)” value on hCB2R [5] (setting [7]) was determined as 43.7 min. The “ΔΔG (Experimental)” value is -0.9 kcal/mol at hCB2R [5] and “–0.90 kcal mol-1” on hCB2R [5] (listed as (R)–3). For the same compound, the “ΔG (Experimental)” value at hCB2R [5] (ΔG exp = RT ln(Kd), T = 310 K, from experimental Kd values) is on record as “–13.6 kcal mol-1”.
